Measured values from patent US8871818B2, “Gastrointestinal absorption enhancer mediated by proton-coupled transporter and its preparing method” (Otsuka Pharmaceutical Co., Ltd., priority 2003, dated 2014).

Key:
Caco-2 cells = assay: Cellular uptake into Caco-2 cells under various pH conditions (pH profile); format: in vitro ADME, human; conditions: 2 mM, uptake over 15 minutes
Description: To investigate the effect of extracellular fluid on the cellular uptake of dipeptides and β-lactam antibiotics transported by PEPT1, the cellular uptake of dipeptides, i.e., [^14C]glycylsarcosine ([^14C]GlySar) and [^3H]carnosine, and β-lactam antibiotics, i.e., cefadroxil (CDX), cefixime (CFIX), and FK089, was evaluated at pH 5.0 to 7.0 using gastrointestinal tract model cells (Caco-2 cells).
Cells cultured on 4-well plates were rinsed 3 times with 1 mL Hanks' balanced salt solution (HBSS: 0.952 mM CaCl2, 5.36 mM KCl, 0.441 mM KH2PO4, 0.812 mM MgSO4, 136.7 mM NaCl, 0.385 mM Na2HPO4, 25 mM D-glucose, 10 mM HEPES; pH 7.4; osmotic pressure 315 mOs/kg) heated to 37° C., and uptake was initiated by adding 250 μL HBSS containing medical fluid. Uptake was terminated at a predetermined period of time by washing the cells 3 times with 1 mL ice-cooled HBSS. […] The medicaments contained in the solution extracted from the cells were quantified by a liquid scintillation counter or liquid chromatography (HPLC). Proteins contained in the cells were quantified using a protein assay kit (Bio-Rad, Richmond, Calif., USA) according to the Bradford assay (Bradford, M. M. “A Rapid and Sensitive Method for the Quantitation of Microgram Quantities of Protein Utilizing the Principle of Protein-Dye Binding”. Anal. Biochem. 72 (1976): 248-254). […]

[1] = Plasma concentration of CFIX after oral administration to rats with polymer and/or CDX; format: in vivo; conditions: male, SD, rat, CFIX 2.3 mg/kg, polymer 500 mg/kg
Description: To investigate whether absorption of orally-administered peptidergic compounds in rats is improved by controlling gastrointestinal pH using pH-sensitive polymers, the time course of the plasma concentration of CFIX was examined after orally administering the peptidergic compound CFIX in combination with a pH-sensitive polymer (Eudragit L100-55) or pH-insensitive polymer (Eudragit RS PO).
The oral composition of the invention was prepared by adding Eudragit L100-55 to an aqueous solution of CFIX (0.23 mg/mL) such that the solution contained Eudragit L100-55 in a proportion of 5 wt. % based on the amount of the entire oral composition. A CFIX solution containing no Eudragit L100-55 was prepared as a control. These compositions were orally administered to SD male rats (body weight: 190 to 220 g) fasted for an entire day and night such that CFIX was given in a dose of 2.3 mg/kg. Blood was collected 15 to 480 minutes after administration, and the plasma concentration of CFIX was measured by HPLC. Based on the plasma concentration profile of CFIX thus obtained, the area under the plasma drug concentration-time curve (AUC) and highest drug concentration observed in plasma following administration of an extravascular dose (Cmax) were obtained.
Plots (◯) represent absorption of CFIX in the absence of a polymer, plots (●) represent absorption of CFIX in the presence of Eudragit L100-55 (500 mg/kg), and plots (□) represent absorption of CFIX in the presence of Eudragit RS PO (500 mg/kg). Each plot represents the mean±standard error of 5 experiments.
The experimental procedure was as described in Example 4 except that CDX was simultaneously administered.
FIG. 5 depicts the influence of CDX on the oral administration profile of CFIX after administering the composition (CFIX: 2.3 mg/kg) to rats. Plots (●) represent absorption of CFIX when Eudragit L100-55 (500 mg/kg) and 0 mM CDX were used, plots (▴) represent absorption of CFIX when Eudragit L100-55 (500 mg/kg) and 2 mM CDX were used, and plots (▪) represent absorption of CFIX when Eudragit L100-55 (500 mg/kg) and 10 mM CDX were used. […]

rat ileum = assay: Absorption in rat intestinal loop, in situ closed loop method; format: in vivo; conditions: 20 minutes, CDX 1 mM or CFIX 0.5 mM in MES buffer pH 6.0
Description: For example, rats are anesthetized by intraperitoneally administering pentobarbital sodium (50 mg/kg). Then, laparotomy is performed along the median line to expose the intestinal tract, and a loop is formed at the ileum (e.g., FIG. 6). MES buffer containing medical fluid and a polymer (5 mM KCl, 100 mM NaCl, 10 mM 2-(N-morpholino)ethanesulfonic acid (MES), 85 mM mannitol, 0.01% polyethylene glycol; pH 6.0; osmotic pressure 290 mOs/kg) is introduced into the intestinal loop and both ends of the loop are ligated. Subsequently, the intestinal loop is immediately returned to the abdominal cavity. An incandescent lamp is used to maintain the body temperature. The solution inside the intestinal loop is retrieved 20 minutes after its administration. The pH was measured by pH-meter. The amount of medicaments are measured by HPLC.
The oral composition of the invention was prepared by adding a β-lactam antibiotic (CDX or CFIX) to 10 mM MES buffer (pH 6.0) such that the buffer contained CDX in an amount of 1 mM or CFIX in an amount of 0.5 mM, and further adding Eudragit L100-55 to the buffer so that it contained in a proportion of 10 or 20 wt. % based on the amount of the entire oral composition. A β-lactam antibiotic solution containing no Eudragit L100-55 was prepared as a control.
These compositions were administered into the intestinal loops prepared at the caecum junction of SD male rats (junction between the terminal of the ileum and where the caecum starts) to a distance of 14 cm toward the stomach. The solution remaining in the intestinal loops was retrieved 20 minutes after administration. The concentration of β-lactam antibiotic in the retrieved solution was measured by HPLC, and pH of the retrieved solution was measured using a pH meter. Absorbability was evaluated according to the decrease in the concentration of β-lactam antibiotic in the retrieved solution in comparison with the concentration thereof in the solution administered.

| SMILES | cellular uptake when pH of extracellular fluid is decreased from 6.0 to 5.0 (Caco-2 cells; Caco-2 cells) | Cmax [1] [µg/mL] | Tmax [1] [min] | AUC(0-t) ([1]; read-out: AUC0-8h of CFIX) [µg·h/mL] | absorption from rat intestinal loop (rat ileum; no Eudragit L100-55) | absorption from rat intestinal loop (rat ileum; with Eudragit L100-55 20 wt. %) | pH of optimum uptake into Caco-2 cells (Caco-2 cells; pH 5.0 to 7.0) |
| --- | --- | --- | --- | --- | --- | --- | --- |
| C=CC1=C(C(=O)O)N2C(=O)[C@@H](NC(=O)/C(=N\OCC(=O)O)c3csc(N)n3)[C@H]2SC1 [CFIX, cefixime] | greatly enhanced | 4.13 ± 0.5 | 43.2 ± 12 | 10.8 ± 1.48 | hardly absorbed | about 35% |  |
| CC1=C(C(=O)O)N2C(=O)[C@@H](NC(=O)[C@H](N)c3ccc(O)cc3)[C@H]2SC1 [CDX, cefadroxil] |  |  |  |  | about 40% | about 80% | 6.0 |
